Source: publication PMC11931645, “Semisynthetic derivatives of massarilactone D with cytotoxic and nematicidal activities” (Beilstein Journal of Organic Chemistry, 2025)
Entries after “also recorded” stand apart in the source; their conditions may differ. Like-named read-outs stand apart in the source and are kept apart here.

Tests used:
[1] = tested on: murine fibroblasts L929; assay: Cytotoxicity, MTT method, L929; assay type: cell-based; conditions: Mus musculus, L929, 120 h, read-out: IC50 L929
Method: (§1) The cytotoxicity against the murine fibroblasts L929, human cervix carcinoma KB-3-1, human lung carcinoma A549, human prostate cancer PC-3, epidermoid carcinoma A431, ovarian carcinoma SKOV-3, and breast cancer MCF-7 cell lines was determined by using the MTT (2-(4,5-dimethylthiazol-2-yl)-2,5-diphenyltetrazolium bromide) method in 96-well microplates as previously described. Briefly, the cell lines were cultured in DMEM (Gibco), 60 µL aliquots of serial dilutions from an initial stock of 1 mg/mL in MeOH of the test compounds were added to 120 µL aliquots of a cell suspension (5 × 10^4 cells/mL) in 96-well microplates. After 5 days incubation, an MTT assay was performed, and the absorbance measured at 590 nm using an ELISA plate reader (Victor). The concentration at which the growth of cells was inhibited to 50% of the control (IC50) was obtained from the dose–response curves. Epothilone B was used as the positive control.

[2] = tested on: L929, KB3-1, A549, PC-3, A431, SKOV-3 and MCF-7 cell lines; assay: Cytotoxicity, MTT method, statements over the cell line panel; assay type: cell-based
Method: as §1

[3] = tested on: human cervix carcinoma KB-3-1; assay: Cytotoxicity, MTT method, KB-3-1; assay type: cell-based; conditions: KB 3-1, 120 h, 5 days incubation, na: not active, read-out: IC50 KB3.1
Method: as §1

[4] = tested on: Caenorhabditis elegans; assay: Nematicidal activity, microtiter plate assay; assay type: cell-based; conditions: for LD50 / LD90 / nematicidal activity (in words): C. elegans; for LD50 / LD90: tested at 100, 50, 25 and 12.5 μg/mL, no: not obtained; for mortality: at concentrations of 50 and 100 μg/mL
Method: Nematicidal activity was performed using Caenorhabditis elegans in a microtiter plate assay as described by Rupcic et al. (2018). The assay was performed in four concentrations (100, 50, 25 and 12.5 μg/mL). Ivermectin was used as a positive control at the same concentration ranges as the tested compounds and MeOH was used as a negative control. Percentages of mortality were calculated, then the results were expressed as a LD90 and LD50.

[5] = tested on: A549; design: method as in PMID 36006179; conditions: human cancer cell line; cited from earlier work
[6] = tested on: SKMEL-28; design: method as in PMID 36006179; conditions: human cancer cell line; cited from earlier work
[7] = tested on: Hs683; design: method as in PMID 36006179; conditions: human cancer cell line; cited from earlier work
[8] = design: method as in PMID 28991218; conditions: cited from earlier work
[9] = design: method as in PMID 28991218; conditions: cited from earlier work; remark: listed apart in the source
[10] = tested on: ovarian carcinoma SKOV-3; assay: Cytotoxicity, MTT method, SKOV-3; assay type: cell-based; conditions: Homo sapiens, SK-OV-3, 120 h, 5 days incubation, na: not active
Method: as §1

[11] = tested on: human lung carcinoma A549; assay: Cytotoxicity, MTT method, A549; assay type: cell-based; conditions: A549, 120 h, 5 days incubation, na: not active
Method: as §1

[12] = tested on: human prostate cancer PC-3; assay: Cytotoxicity, MTT method, PC-3; assay type: cell-based; conditions: 120 h, read-out: IC50 PC-3
Method: as §1

[13] = tested on: epidermoid carcinoma A431; assay: Cytotoxicity, MTT method, A431; assay type: cell-based; conditions: Homo sapiens, A-431, 120 h, 5 days incubation, na: not active
Method: as §1

[14] = tested on: breast cancer MCF-7; assay: Cytotoxicity, MTT method, MCF-7; assay type: cell-based; conditions: Homo sapiens, MCF7, 120 h, read-out: IC50 MCF-7
Method: as §1

[15] = MTT, 5 days incubation, na: not active
[16] = read-out: IC50 values, range against the L929 and KB3-1 cell lines
[17] = all tested cell lines, read-out: IC50 values, range against all the tested cell lines

SMILES | IC50 [1, 15] | IC50 [3] | LD50 [4] | LD90 [4] | mortality [4] | cytotoxic activity (in words) ([2]; all tested cell lines) | other results
C/C=C/C(=O)O[C@H]1C2=C(O[C@@H](/C=C/C)[C@@H]1O)[C@@](C)(OC)OC2=O [Compound 7, massarilactone D 4-O-crotonyl-7-O-methyl] | 61.7 µM | 55.6 µM | not obtained and no | no | some mortality |  | IC50 [2, 16]: 18.5 to 61.7 µM
C=C1OC(=O)C2=C1OC(/C=C/C)C(O)C2O (stereo not drawn) [massarilactone H] |  |  |  |  |  |  | IC50 [5]: 32.9 µM; IC50 [6]: 35.2 µM; IC50 [7]: 31.5 µM
C/C=C/[C@@H]1OC2=C(C(=O)O[C@]2(C)O)[C@H](O)[C@H]1O [Compound 1, Massarilactone D] |  |  | not obtained and no | no | some mortality | not active | cytotoxic activity (in words) [8]: did not exhibit significant antimicrobial or cytotoxic activities; antimicrobial activity (in words) [9]: did not exhibit significant antimicrobial
C=C(C)C(=O)O[C@H]1[C@H](/C=C/C)OC2=C(C(=O)O[C@]2(C)OC(=O)C2(C)CCC(C)=C(Cl)O2)[C@@H]1OC(=O)C(=C)C (stereo partly drawn) [Compound 2, massarilactone D 3,4-di-O-methacryloyl-7-O-(6-chloro-3,4-dihydro-2,5-dimethyl-2H-pyran-2-carbonyl)] | 5.09 µM | 13.1 µM |  |  |  | significant cytotoxicity | IC50 [2, 17]: 3.51 to 32.7 µM; IC50 [10]: 11.8 µM; IC50 [11]: 32.7 µM; IC50 [12, 15]: 11.8 µM; IC50 [13]: 4 µM; IC50 [14, 15]: 7.09 µM
C=C1OC(=O)C2=C1O[C@@H](/C=C/C)[C@H](OC(=O)/C=C/c1ccccc1)[C@H]2OC(=O)/C=C/c1ccccc1 [Compound 3, massarilactone H 3,4-di-O-trans-cinnamoyl] | 5.58 µM | 7.85 µM |  |  |  | significant cytotoxicity | IC50 [2, 17]: 3.51 to 32.7 µM; IC50 [10]: 13.2 µM; nematicidal activity (in words) [4]: did not exhibit nematicidal activity; IC50 [11]: 19.6 µM; IC50 [12, 15]: 7.64 µM; IC50 [13]: 4.34 µM; IC50 [14, 15]: 3.51 µM
C/C=C/[C@@H]1OC2=C(C(=O)O[C@]2(C)OC(=O)c2ccc(Br)cc2)[C@H](OC(=O)c2ccc(Br)cc2)[C@H]1OC(=O)c1ccc(Br)cc1 [Compound 5, massarilactone D 3,4,7-tri-O-bromobenzoyl] |  |  | 100 µg/mL | not obtained and no |  |  | 
C/C=C/C(=O)O[C@H]1C2=C(O[C@@H](/C=C/C)[C@@H]1O)[C@@](C)(OC(=O)/C=C/C)OC2=O [Compound 8, massarilactone D 4,7-di-O-crotonyl] | 50.3 µM | 18.5 µM | not obtained and no | no | some mortality |  | IC50 [2, 16]: 18.5 to 61.7 µM
C/C(=C\c1csc(C)n1)[C@@H]1C[C@@H]2O[C@]2(C)CCC[C@H](C)[C@H](O)[C@@H](C)C(=O)C(C)(C)[C@@H](O)CC(=O)O1 [epothilone B, Epothilone B, reference compound] |  |  |  |  |  |  | IC50 [1]: 0.0022 µM; IC50 [12]: 9.1e-05 µM; IC50 [14]: 7.5e-05 µM
C/C=C/[C@@H]1OC2=C(C(=O)O[C@]2(C)OC(=O)/C=C/c2ccccc2)[C@H](OC(=O)/C=C/c2ccccc2)[C@H]1OC(=O)/C=C/c1ccccc1 [Compound 4, massarilactone D 3,4,7-tri-O-trans-cinnamoyl] |  |  | 12.5 µg/mL | 100 µg/mL |  |  | nematicidal activity (in words) [4]: potent activity against nematodes; also recorded: good nematicidal activity
C/C=C/[C@@H]1OC2=C(C(=O)O[C@]2(C)O)[C@H](O)[C@H]1OC(=O)/C(C)=C/C [Compound 6, massarilactone D 7-O-trans-2-methyl-2-butenoyl] |  |  | not obtained and no | no | some mortality |  | 
